Read-outs that look alike come from different tables or passages of the source.
Experiments:
[1] = target: T1, human Gcg receptor (hGcgR) (Homo sapiens, UniProt P47871); assay: [125I]-Glucagon binding, SPA with membranes of HEK293 cells expressing hGcgR; conditions: human GcgR; geometric mean (SEM, n); read-out: Binding Affinity Ki, nM (SEM, n) hGCGR
T1 construct: expressed in transfected cells; crude membranes

[2] = target: T2, human GLP-1 receptor (hGLP-1R) (Homo sapiens, UniProt P43220); assay: [125I]-GLP-1 binding, SPA with membranes of HEK293 cells expressing hGLP-1R; conditions: human GLP-1R; geometric mean (SEM, n); read-out: Binding Affinity Ki, nM (SEM, n) hGLP-1R
T2 construct: expressed in transfected cells; crude membranes
T2 sequence (P43220 24-463): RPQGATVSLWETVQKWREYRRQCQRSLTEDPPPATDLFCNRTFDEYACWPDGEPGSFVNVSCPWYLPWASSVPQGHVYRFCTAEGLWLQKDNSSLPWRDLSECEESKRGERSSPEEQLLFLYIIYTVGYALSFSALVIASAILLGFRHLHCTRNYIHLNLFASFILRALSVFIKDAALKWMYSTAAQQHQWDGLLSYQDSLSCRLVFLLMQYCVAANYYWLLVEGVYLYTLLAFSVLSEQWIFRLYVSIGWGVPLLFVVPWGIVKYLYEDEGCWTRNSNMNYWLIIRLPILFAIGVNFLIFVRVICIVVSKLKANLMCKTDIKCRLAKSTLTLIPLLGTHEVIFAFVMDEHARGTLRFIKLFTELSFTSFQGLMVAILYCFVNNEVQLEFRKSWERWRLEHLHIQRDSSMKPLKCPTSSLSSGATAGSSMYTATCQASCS

[3] = target: T3, human GIP receptor (hGIPR) (Homo sapiens, UniProt P48546); assay: [125I]-GIP binding, SPA with membranes of CHO cells expressing hGIPR; conditions: human GIPR; geometric mean (SEM, n); read-out: Binding Affinity Ki, nM (SEM, n) hGIPR
T3 construct: expressed in transfected cells; crude membranes
T3 sequence (P48546 22-466): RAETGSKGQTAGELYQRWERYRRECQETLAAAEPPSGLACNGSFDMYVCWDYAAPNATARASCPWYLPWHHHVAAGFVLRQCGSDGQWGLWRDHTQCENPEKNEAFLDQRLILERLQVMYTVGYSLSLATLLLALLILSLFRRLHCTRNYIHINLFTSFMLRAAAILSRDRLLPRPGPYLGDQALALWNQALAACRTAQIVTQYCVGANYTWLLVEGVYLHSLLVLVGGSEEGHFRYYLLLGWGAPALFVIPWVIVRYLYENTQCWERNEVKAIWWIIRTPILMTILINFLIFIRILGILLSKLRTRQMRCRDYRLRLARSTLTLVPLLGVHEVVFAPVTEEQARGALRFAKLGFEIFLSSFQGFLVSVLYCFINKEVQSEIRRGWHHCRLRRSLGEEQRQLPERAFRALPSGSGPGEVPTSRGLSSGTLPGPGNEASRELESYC

hGIPR = target: T4, hGIPR (Homo sapiens, UniProt P48546); assay: Functional cAMP formation (HTRF) in HEK-293 clonal cells expressing hGIPR, 0.1% bovine casein, without or with 1.0% human serum albumin; format: cell-based; conditions: for Emax: read-out: hGIPR Emax, % ± SEM; for EC50: geometric mean, read-out: hGIPR EC50, nM (SEM, n)
T4 construct: expressed in transfected cells
T4 sequence (P48546 22-466): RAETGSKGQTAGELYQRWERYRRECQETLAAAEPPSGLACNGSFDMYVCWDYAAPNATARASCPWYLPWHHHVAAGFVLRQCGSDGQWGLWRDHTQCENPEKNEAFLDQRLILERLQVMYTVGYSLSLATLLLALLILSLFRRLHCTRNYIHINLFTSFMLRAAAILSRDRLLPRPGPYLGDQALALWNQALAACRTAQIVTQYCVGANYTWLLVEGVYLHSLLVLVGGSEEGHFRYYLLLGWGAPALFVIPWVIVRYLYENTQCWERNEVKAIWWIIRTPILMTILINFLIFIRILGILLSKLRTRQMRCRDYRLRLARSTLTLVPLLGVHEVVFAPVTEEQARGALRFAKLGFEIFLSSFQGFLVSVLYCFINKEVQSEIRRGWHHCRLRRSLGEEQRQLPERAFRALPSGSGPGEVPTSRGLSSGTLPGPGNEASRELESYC
Outline: (§1)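 Cells were stimulated with peptide for 30 min at 37° C, then intracellular cAMP was measured by competitive HTRF (665/620 nm ratio) and converted to nM using a cAMP standard curve. Relative EC50 and Emax came from four-parameter logistic fits of percent maximal response against peptide concentration.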

hGCGR = target: T5, hGCGR (Homo sapiens, UniProt P47871); assay: Functional cAMP formation (HTRF) in HEK-293 clonal cells expressing hGCGR, 0.1% bovine casein, without or with 1.0% human serum albumin; format: cell-based; conditions: read-out: hGCGR EC50, nM (SEM, n)
T5 construct: expressed in transfected cells
T5 sequence (P47871 26-477): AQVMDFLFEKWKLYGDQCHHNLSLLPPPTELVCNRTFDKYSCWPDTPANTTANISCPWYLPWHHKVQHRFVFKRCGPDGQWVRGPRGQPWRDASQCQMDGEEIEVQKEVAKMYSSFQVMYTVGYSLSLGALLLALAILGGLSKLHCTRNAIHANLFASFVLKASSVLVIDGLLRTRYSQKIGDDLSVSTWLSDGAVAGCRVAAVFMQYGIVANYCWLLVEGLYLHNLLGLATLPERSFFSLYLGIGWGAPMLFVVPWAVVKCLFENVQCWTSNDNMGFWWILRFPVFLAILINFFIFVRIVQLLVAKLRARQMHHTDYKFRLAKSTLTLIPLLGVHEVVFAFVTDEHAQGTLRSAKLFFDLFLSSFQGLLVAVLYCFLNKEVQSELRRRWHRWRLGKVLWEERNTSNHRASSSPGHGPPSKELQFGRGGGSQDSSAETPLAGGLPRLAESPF
Outline: as §1

hGLP-1R = hGLP-1R (Homo sapiens, UniProt P43220); assay: Functional cAMP formation (HTRF) in HEK-293 clonal cells expressing hGLP-1R, 0.1% bovine casein, without or with 1.0% human serum albumin; format: cell-based; set-up: expressed in transfected cells; conditions: 37° C.; for Emax: read-out: hGLP-1R Emax, % ± SEM; for EC50: geometric mean, read-out: hGLP-1R EC50, nM (SEM, n)
Sequence of hGLP-1R (P43220 24-463): as the sequence (P43220 24-463) above
Outline: as §1

[4] = target: human glucagon receptor (human) (UniProt P47871); assay: cell-based or functional assay
[5] = target: human glucagon-like peptide-1 (GLP-1) receptor (human) (UniProt P43220); assay: cell-based or functional assay
[6] = target: T6, human glucose-dependent insulinotropic polypeptide (GIP) receptor (human) (UniProt P48546); assay: cell-based or functional assay
T6 sequence (looked up): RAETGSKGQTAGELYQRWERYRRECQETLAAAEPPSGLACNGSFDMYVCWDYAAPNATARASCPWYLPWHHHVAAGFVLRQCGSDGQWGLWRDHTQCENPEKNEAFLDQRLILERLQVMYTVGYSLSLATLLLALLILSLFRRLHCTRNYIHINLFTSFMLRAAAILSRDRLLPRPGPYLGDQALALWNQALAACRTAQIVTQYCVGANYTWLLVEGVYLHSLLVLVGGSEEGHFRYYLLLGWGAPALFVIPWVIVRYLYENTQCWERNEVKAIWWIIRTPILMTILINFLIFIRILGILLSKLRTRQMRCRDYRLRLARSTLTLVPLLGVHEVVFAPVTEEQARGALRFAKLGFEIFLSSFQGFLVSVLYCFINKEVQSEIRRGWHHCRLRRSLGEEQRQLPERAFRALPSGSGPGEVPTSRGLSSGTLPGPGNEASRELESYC

human GIP receptor = target: T7, human GIP receptor (human, UniProt P48546 22-466); assay: cell-based or functional assay
T7 sequence (looked up): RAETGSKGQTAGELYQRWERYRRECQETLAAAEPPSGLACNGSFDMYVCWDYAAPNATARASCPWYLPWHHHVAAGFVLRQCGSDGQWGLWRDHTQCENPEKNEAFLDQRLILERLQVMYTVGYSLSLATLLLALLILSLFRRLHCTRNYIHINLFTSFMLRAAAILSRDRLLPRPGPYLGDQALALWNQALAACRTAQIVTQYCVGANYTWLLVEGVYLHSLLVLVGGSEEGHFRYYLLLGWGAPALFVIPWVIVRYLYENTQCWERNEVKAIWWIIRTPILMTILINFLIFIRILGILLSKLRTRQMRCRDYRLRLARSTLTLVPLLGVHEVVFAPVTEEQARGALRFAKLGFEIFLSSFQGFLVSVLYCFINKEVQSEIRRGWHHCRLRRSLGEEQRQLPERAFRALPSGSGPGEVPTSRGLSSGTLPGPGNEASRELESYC

human GLP-1 receptor = human GLP-1 receptor (human, UniProt P43220 24-463); assay: cell-based or functional assay

T1 sequence (P47871 26-477): as the sequence (P47871 26-477) above

Molecule: CC[C@H](C)[C@H](NC(=O)[C@H](CC(C)C)NC(=O)[C@](C)(Cc1ccc(O)cc1)NC(=O)[C@H](CCCCNC(=O)CCCCCNC(=O)COCCOCCNC(=O)CC[C@H](NC(=O)CCCCCCCCCCCCC(=O)O)C(=O)O)NC(=O)[C@@H](NC(=O)[C@H](Cc1ccccc1)NC(=O)[C@H](CCCN)NC(=O)C(C)(C)NC(=O)[C@H](CCC(N)=O)NC(=O)[C@H](C)NC(=O)[C@H](CCC(N)=O)NC(=O)[C@H](CCCN)NC(=O)[C@H](CC(=O)O)NC(=O)[C@H](CC(C)C)NC(=O)[C@](C)(CC(C)C)NC(=O)[C@@H](NC(=O)C(C)(C)NC(=O)[C@H](Cc1ccncc1)NC(=O)[C@H](CC(=O)O)NC(=O)[C@H](CO)NC(=O)[C@@H](NC(=O)[C@](C)(Cc1ccccc1F)NC(=O)[C@@H](NC(=O)CNC(=O)[C@H](CCC(=O)O)NC(=O)C(C)(C)NC(=O)[C@@H](N)Cc1ccc(O)cc1)[C@@H](C)O)[C@@H](C)O)[C@@H](C)CC)[C@@H](C)CC)C(=O)N[C@@H](CCCCNC(=O)CCCCCNC(=O)COCCOCCNC(=O)CC[C@H](NC(=O)CCCCCCCCCCCCC(=O)O)C(=O)O)C(=O)NCC(=O)NCC(=O)N1CCC[C@H]1C(=O)N[C@@H](CO)C(=O)N[C@@H](CO)C(=O)NCC(=O)N[C@@H](C)C(=O)N1CCC[C@H]1C(=O)N1CCC[C@H]1C(=O)N1CCC[C@H]1C(=O)N[C@@H](CO)C(N)=O [Example 451]
- Ki [1]: 258 nM
- Ki [2]: 0.234 nM
- Ki [3]: 0.0239 nM
- Emax (hGIPR; HEK293, cAMP, 37° C., 0.1% bovine casein and 1.0% human serum albumin, percent of maximal response to GIP(1-42)NH2): 89.5%
- EC50 (hGIPR; cAMP, 37° C., 0.1% bovine casein (no human serum albumin)): 0.0113 nM
- EC50 (hGCGR; cAMP, 37° C., 0.1% bovine casein (no human serum albumin), geometric mean): > 9950 nM
- EC50 (hGCGR; cAMP, 37° C., 0.1% bovine casein and 1.0% human serum albumin, geometric mean (SEM, n)): > 9950 nM
- Emax (hGLP-1R; HEK293, cAMP, 0.1% bovine casein, percent of maximal response to GLP-1(7-36)NH2, arithmetic mean): 118%
- EC50 (hGLP-1R; cAMP, 0.1% bovine casein (no human serum albumin)): 0.172 nM

Molecule: CC[C@H](C)[C@H](NC(=O)[C@H](CC(C)C)NC(=O)[C@](C)(Cc1ccc(O)cc1)NC(=O)[C@@H](CCC(=O)O)NC(=O)[C@@H](NC(=O)[C@H](Cc1ccccc1)NC(=O)[C@H](CCCCNC(=O)COCCOCCNC(=O)COCCOCCNC(=O)CC[C@H](NC(=O)CCCCCCCCCCCCC(=O)O)C(=O)O)NC(=O)C(C)(C)NC(=O)[C@H](CCC(N)=O)NC(=O)[C@H](C)NC(=O)[C@H](CCCCNC(=O)COCCOCCNC(=O)COCCOCCNC(=O)CC[C@H](NC(=O)CCCCCCCCCCCCC(=O)O)C(=O)O)NC(=O)[C@H](CCCN)NC(=O)[C@H](CC(=O)O)NC(=O)[C@H](CC(C)C)NC(=O)[C@](C)(CC(C)C)NC(=O)[C@@H](NC(=O)[C@H](CO)NC(=O)[C@H](Cc1ccncc1)NC(=O)[C@H](CC(=O)O)NC(=O)[C@H](CO)NC(=O)[C@@H](NC(=O)[C@](C)(Cc1ccccc1F)NC(=O)[C@@H](NC(=O)CNC(=O)[C@H](CCC(=O)O)NC(=O)C(C)(C)NC(=O)[C@@H](N)Cc1ccc(O)cc1)[C@@H](C)O)[C@@H](C)O)[C@@H](C)CC)[C@@H](C)CC)C(=O)N[C@@H](CCC(=O)O)C(=O)NCC(=O)NCC(=O)N1CCC[C@H]1C(=O)N[C@@H](CO)C(=O)N[C@@H](CO)C(=O)NCC(=O)N[C@@H](C)C(=O)N1CCC[C@H]1C(=O)N1CCC[C@H]1C(=O)N1CCC[C@H]1C(=O)N[C@@H](CO)C(N)=O [Example 15]
- Ki [1]: > 966 nM
- Ki [3]: 0.0629 nM
- EC50 (hGIPR; 0.1% bovine casein and 1.0% human serum albumin, 37° C.): 0.573 nM
- Emax (hGIPR; HEK293, 0.1% bovine casein and 1.0% human serum albumin, 37° C., percent of maximal response to GIP(1-42)NH2): 94.4 ± 1.01%
- Emax (hGIPR; HEK293, percent of maximal response to GIP(1-42)NH2, 37° C., 0.1% bovine casein, arithmetic mean): 95.9 ± 2.34%
- EC50 (hGIPR; cAMP, incubated at 37° C., 0.1% bovine casein (no human serum albumin)): 0.0133 nM
- EC50 (hGCGR; 0.1% bovine casein and 1.0% human serum albumin, 37° C., geometric mean): > 9950 nM
- EC50 (hGCGR; cAMP, incubated at 37° C., 0.1% bovine casein (no human serum albumin), geometric mean): > 9950 nM
- EC50 (hGLP-1R; 0.1% bovine casein and 1.0% human serum albumin): 24.8 nM
- Emax (hGLP-1R; HEK293, 0.1% bovine casein and 1.0% human serum albumin, percent of maximal response to GLP-1(7-36)NH2): 93.2 ± 3.68%
- Emax (hGLP-1R; HEK293, percent of maximal response to GLP-1(7-36)NH2, 0.1% bovine casein, arithmetic mean): 94.3 ± 4.44%

B1: Example 244 (peptide)
peptide: YXEGTXTSDXXIXLDXKAQXEFIXXLIKGGPSSGAPPPS
modifications: Y-Aib-EGT-αMeF(2F)-TSD-4Pal-Aib-I-αMeL-LD-Orn-K((2-[2-(2-Amino-ethoxy)-ethoxy]-acetyl)2-(γ-Glu)-(10-(4-carboxyphenoxy)decanoyl))AQ-Aib-EFI-(D-Glu)-αMeY-LIK((2-[2-(2-Amino-ethoxy)-ethoxy]-acetyl)2-(γ-Glu)-(10-(4-carboxyphenoxy)decanoyl))GGPSSGAPPPS-NH2
- cAMP EC50 [4]: > 9950 nM
- cAMP EC50 [5]: 2.25 nM
- cAMP Emax [5]: 104%
- cAMP EC50 [6]: 0.0218 nM
- cAMP Emax [6]: 101%
- cAMP EC50 (1.0% HSA) (human GIP receptor): 0.983 nM
- cAMP EC50 (1.0% HSA) (human GLP-1 receptor): 30.8 nM

Reference: US20230265151A1, “GIP/GLP1 CO-AGONIST COMPOUNDS” (priority 2020, published 2023)
